Experimental data taken from ChEMBL document CHEMBL1201862, “PubChem BioAssay data set” (2004).
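Test compounds were applied to cells in 96-well plates for 48 hours at 5 doses. GI50: concentration for 50% inhibition of growth.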 The source made the active and inactive calls. Cut-off read from the data, not from the text of the source: active = GI50 up to about 1.1 µM and inactive = higher.

Tests used:
Assay in all cases: NCI-60 cell line screen, 48 h
OVCAR-5 = test system: OVCAR-5
786-0 = test system: 786-0
HT-29 = test system: HT-29
SK-MEL-2 = test system: SK-MEL-2
SNB-19 = test system: SNB-19
IGROV-1 = test system: IGROV-1
M14 = test system: M14
SK-MEL-5 = test system: SK-MEL-5
LOX IMVI = test system: LOX IMVI
ACHN = test system: ACHN
COLO 205 = test system: COLO 205
SK-OV-3 = test system: SK-OV-3
SF-295 = test system: SF-295
EKVX = test system: EKVX
U-251 = test system: U-251

| SMILES | GI50 (OVCAR-5) | GI50 (786-0) | GI50 (HT-29) | GI50 (SK-MEL-2) | GI50 (SNB-19) | GI50 (IGROV-1) | GI50 (M14) | GI50 (SK-MEL-5) | GI50 (LOX IMVI) | GI50 (ACHN) | GI50 (COLO 205) | GI50 (SK-OV-3) | GI50 (SF-295) | GI50 (EKVX) | GI50 (U-251) |
| --- | --- | --- | --- | --- | --- | --- | --- | --- | --- | --- | --- | --- | --- | --- | --- |
| CCCCCCCCCCCCC(CC)CCCCC(=O)O (configuration not stated) | > 100 µM (inactive) | 31.8 µM (inactive) | > 65.6 µM (inactive) | > 100 µM (inactive) | > 100 µM (inactive) | > 100 µM (inactive) | > 100 µM (inactive) | > 100 µM (inactive) | > 65.5 µM (inactive) | > 100 µM (inactive) | > 58.3 µM (inactive) | > 100 µM (inactive) | > 100 µM (inactive) | > 56.2 µM (inactive) | > 47.6 µM (inactive) |
| COc1ccc(C(=C[N+](=O)[O-])c2ccc(OC)cc2)cc1 | 38.8 µM (inactive) | 20.8 µM (inactive) | 4.52 µM (inactive) | 6.14 µM (inactive) | 22.2 µM (inactive) | 9.42 µM (inactive) | 11.9 µM (inactive) | 28.6 µM (inactive) | 9.44 µM (inactive) | 30.1 µM (inactive) | 9.79 µM (inactive) | 14.3 µM (inactive) | 5.96 µM (inactive) | 42.3 µM (inactive) | 11.3 µM (inactive) |
| O=C(/C=C\c1cccc2ccccc12)c1ccc(Br)cc1 | 18 µM (inactive) | 19.2 µM (inactive) | 18.2 µM (inactive) |  | 25.7 µM (inactive) | 23.6 µM (inactive) | 18.1 µM (inactive) | 19.7 µM (inactive) |  | 17.4 µM (inactive) | 31.1 µM (inactive) | 30.7 µM (inactive) | 22.4 µM (inactive) | 24 µM (inactive) | 16.1 µM (inactive) |
| CCOC(=O)C1=C(Nc2ccccc2)SC/C1=N\NC(=O)Cc1ccccc1 | > 100 µM (inactive) | > 100 µM (inactive) | > 100 µM (inactive) | > 100 µM (inactive) | > 100 µM (inactive) | > 100 µM (inactive) | > 100 µM (inactive) | > 100 µM (inactive) | > 100 µM (inactive) | > 100 µM (inactive) | > 100 µM (inactive) | > 100 µM (inactive) | > 100 µM (inactive) | > 100 µM (inactive) | > 100 µM (inactive) |
| O=C(Nc1ccc(Sc2ccc(/N=N/c3c(O)c(S(=O)(=O)O)cc4cc(S(=O)(=O)O)ccc34)cc2)cc1)c1ccc(/N=N/c2c(O)ccc3c(S(=O)(=O)O)cc(S(=O)(=O)O)cc23)cc1 | 33.4 µM (inactive) | 37.6 µM (inactive) | 42.1 µM (inactive) | 27.9 µM (inactive) | 41.1 µM (inactive) | 32.7 µM (inactive) | 21.7 µM (inactive) | 7.5 µM (inactive) | 15.5 µM (inactive) | 29.4 µM (inactive) | 15.8 µM (inactive) | > 100 µM (inactive) | 62.7 µM (inactive) | 17.3 µM (inactive) | 41.2 µM (inactive) |
| COc1cc2c(cc1OC)C1(c3ccccc3)ON=C(c3ccccc3)N1CS2 (configuration not stated) | > 100 µM (inactive) | > 100 µM (inactive) | 55.2 µM (inactive) | > 100 µM (inactive) | > 100 µM (inactive) | > 100 µM (inactive) | 46 µM (inactive) | > 100 µM (inactive) | > 100 µM (inactive) | > 100 µM (inactive) | > 100 µM (inactive) | > 100 µM (inactive) | 60.1 µM (inactive) | > 100 µM (inactive) | > 100 µM (inactive) |
| CCOC(=O)[C@H]1Nc2ccc([N+](=O)[O-])cc2C2c3ccccc3CC21 (some centres not stated) | 16.6 µM (inactive) | 19.7 µM (inactive) | 16 µM (inactive) | 31.6 µM (inactive) | 28.4 µM (inactive) | 28 µM (inactive) | 15.2 µM (inactive) | 13.1 µM (inactive) | 17.9 µM (inactive) | 23.6 µM (inactive) | 30.9 µM (inactive) |  | 11.2 µM (inactive) |  | 16.1 µM (inactive) |
| CCOC(=O)C1Cc2ccc3c4c(ccc(c24)C1)CC(C(=O)OCC)C3 | > 100 µM (inactive) | > 100 µM (inactive) | > 100 µM (inactive) | > 100 µM (inactive) | > 100 µM (inactive) | > 100 µM (inactive) | > 100 µM (inactive) | > 100 µM (inactive) | > 100 µM (inactive) | > 100 µM (inactive) | > 100 µM (inactive) | > 100 µM (inactive) | > 100 µM (inactive) | > 100 µM (inactive) | > 100 µM (inactive) |
| COc1ccc2c(=O)c([Se]c3coc4cc(OC)ccc4c3=O)coc2c1 | > 100 µM (inactive) | 44.5 µM (inactive) | > 100 µM (inactive) | > 100 µM (inactive) | > 100 µM (inactive) | 34.4 µM (inactive) | 18.3 µM (inactive) | > 100 µM (inactive) | > 100 µM (inactive) | 72.1 µM (inactive) | > 100 µM (inactive) | > 100 µM (inactive) | 24.7 µM (inactive) | 46.8 µM (inactive) | 42.8 µM (inactive) |
| Cc1cc2occ(C)c(=O)c2c2c1OC(C)(C)S2 | > 100 µM (inactive) | > 100 µM (inactive) | 97.9 µM (inactive) | > 100 µM (inactive) | > 100 µM (inactive) | > 100 µM (inactive) | > 100 µM (inactive) | > 100 µM (inactive) | > 100 µM (inactive) | > 100 µM (inactive) | > 100 µM (inactive) | > 100 µM (inactive) | > 100 µM (inactive) | > 100 µM (inactive) | > 100 µM (inactive) |
| CN/C(=N\C#N)N(Cc1ccccc1)Cc1ccccc1 | > 100 µM (inactive) | > 100 µM (inactive) | > 100 µM (inactive) | > 100 µM (inactive) | > 100 µM (inactive) | > 100 µM (inactive) | > 100 µM (inactive) | > 100 µM (inactive) | > 100 µM (inactive) | > 100 µM (inactive) | > 100 µM (inactive) | > 100 µM (inactive) | > 100 µM (inactive) | > 100 µM (inactive) | > 100 µM (inactive) |
| COc1cc2c(c(OC)c1OC)-c1ccc(SC)c(=O)cc1[C@@H](NCc1cccc(C#N)c1)CC2 | 0.037 µM (active) | 0.0332 µM (active) | 0.0154 µM (active) | 0.0304 µM (active) | 0.045 µM (active) | 0.057 µM (active) | 0.0188 µM (active) | 0.00693 µM (active) | 0.0184 µM (active) | 0.047 µM (active) | 0.0202 µM (active) | 0.0115 µM (active) | 0.0207 µM (active) | 0.0973 µM (active) | 0.0178 µM (active) |
| CCOC(=O)CC(NC(=O)c1nc[nH]c1[N+](=O)[O-])C(=O)OCC (configuration not stated) |  | 52 µM (inactive) | 40.4 µM (inactive) | 92.7 µM (inactive) | 56.6 µM (inactive) | 40.5 µM (inactive) | 67.8 µM (inactive) | 56 µM (inactive) | 60.1 µM (inactive) | 42.2 µM (inactive) | 49.2 µM (inactive) | > 100 µM (inactive) | 33.5 µM (inactive) | 50.1 µM (inactive) | 15.3 µM (inactive) |
| COc1ccc(/C=N/N=C(\N)NO)c(OC)c1C | 2.47 µM (inactive) | 16.1 µM (inactive) | 12.9 µM (inactive) | 22.3 µM (inactive) | 65.2 µM (inactive) | 56.4 µM (inactive) |  |  | 4.81 µM (inactive) | 11.1 µM (inactive) | 10.2 µM (inactive) | 34.4 µM (inactive) | 21.1 µM (inactive) | 4.56 µM (inactive) | 45.1 µM (inactive) |
| CCCCCCCCCCCC(=O)OCC1OC(OC)C(NC(=O)N(CCCl)N=O)C(O)C1O (configuration not stated) | 20.4 µM (inactive) | 0.621 µM (active) | 16.9 µM (inactive) | 26.3 µM (inactive) | 10.1 µM (inactive) | 29.7 µM (inactive) | 11.1 µM (inactive) | 13.1 µM (inactive) | 6.27 µM (inactive) | 10.6 µM (inactive) | 21.9 µM (inactive) |  | 8.24 µM (inactive) |  | 7.06 µM (inactive) |
| COc1ccc(CN(O)C2C(CO)OC(n3cc(I)c(=O)[nH]c3=O)C2O)cc1 (configuration not stated) | > 100 µM (inactive) | > 100 µM (inactive) | > 100 µM (inactive) | > 100 µM (inactive) | > 100 µM (inactive) | > 100 µM (inactive) | > 100 µM (inactive) | > 100 µM (inactive) | > 100 µM (inactive) | > 100 µM (inactive) | > 100 µM (inactive) | > 100 µM (inactive) | > 100 µM (inactive) | > 100 µM (inactive) | > 100 µM (inactive) |
| CC1=C(SC#N)S(=O)(=O)N(c2ccccc2)C(C)=C1SC#N | 39.4 µM (inactive) | 49.4 µM (inactive) | > 100 µM (inactive) | 26.7 µM (inactive) | 25.1 µM (inactive) | 6.56 µM (inactive) | > 10 µM (inactive) | 42 µM (inactive) | 12.9 µM (inactive) | 44 µM (inactive) |  | 38.2 µM (inactive) | 22.6 µM (inactive) |  | 16.9 µM (inactive) |
| CCOC(=O)c1nc(-c2ccccc2)oc1OCC |  | > 100 µM (inactive) | > 100 µM (inactive) |  | > 100 µM (inactive) | > 100 µM (inactive) | > 100 µM (inactive) | > 100 µM (inactive) | 36.8 µM (inactive) |  | > 100 µM (inactive) | > 100 µM (inactive) | > 100 µM (inactive) | 21 µM (inactive) | > 100 µM (inactive) |
| O=C1CCC2(O)c3ccccc3C2Cc2ccccc21 (configuration not stated) |  | > 100 µM (inactive) | > 100 µM (inactive) | > 100 µM (inactive) | > 100 µM (inactive) | > 100 µM (inactive) |  |  | > 100 µM (inactive) | > 100 µM (inactive) | > 100 µM (inactive) |  | > 100 µM (inactive) | > 100 µM (inactive) | > 100 µM (inactive) |
